Measurements published in publication PMC8326056 (Journal of Animal Science, 2021).
Entries after “also recorded” stand apart in the source; their conditions may differ. Structures can show the parent of a compound that is named as a salt.

Tests used:
[1] = system: bovine i.m. adipose tissue; assay: cAMP in i.m. adipose tissue explants (Cyclic AMP XP Assay Kit); format: cell-based, bovine (Angus cross steers); conditions: for cAMP: n = 6 steers, baseline 0.64 ± 0.19
Description: (§1) Fresh s.c. adipose tissue was cut into small pieces (50 to 100 mg, actual weight recorded) and i.m. adipose tissue was dissected from the LM as described previously ([Smith and Crouse, 1984]; [Miller et al., 1988]) and weighed. The s.c. and i.m. adipose samples were incubated according to 3 different sets of experimental conditions. Experiment 1: Small pieces of s.c. and i.m. adipose tissues (50 to 100 mg; 1 to 2 mm thick; [Smith and Prior, 1981]) were preincubated in 6-well tissue culture plates in a CO2/O2 incubator (NuAire model 4750 CO2 incubator, Plymouth, MN) for 30 min at 37 °C, 5% CO2 in KHB plus 5 mM glucose, 10 mM HEPES, and 0.5 mM theophylline. […] Experiment 2: The s.c. and i.m. adipose samples were preincubated in KHB plus 5 mM glucose, 10 mM HEPES, and 0.5 mM theophylline in the presence or absence of either 10 µM L-748,337 (β 3-AR antagonist) or 50 µM PRO (β-AR pan-antagonist). […] After the 30 min preincubation, either DOB (β 1-AA) or SAL (β 2-AA) was added to the culture plate wells in a concentration-dependent manner (10^–9 to 10^–4 M) for an additional 30 min. For all experiments, there were at least 3 replicate wells per treatment condition. After a total of 1-hr incubation, the adipose samples were homogenized in 1 mL cell lysis buffer (Cell Signaling Technology, Danvers, MA) with 1 mM phenymethylsulfony fluoride, and centrifuged at 14,000 × g for 30 min to remove tissue debris. The supernatant fractions were stored at −80 °C until subsequent analyses were performed.
(§2) The concentration of cAMP was determined based on the principle of competitive binding using the Cyclic AMP XP Assay Kit according to the manufacturer’s instructions. Cytosolic extracts from the adipose explants were co-incubated at room temperature for 3 hr in 96-well plates with the HRP-linked cAMP substrate coated onto an immobilized rabbit monoclonal cAMP antibody using a horizontal orbital plate shaker. After the reaction, color development was measured at 450 nm using an Epoch microplate reader (Biotek Instruments, Winooski, VT). All samples were analyzed in duplicate. A standard curve and cAMP concentrations were calculated using GrapPad Prism 6.04 software (GraphPad Software Inc., San Diego, CA).

[2] = system: bovine i.m. adipose tissue; assay: Lipolysis: NEFA release, i.m. adipose tissue explants; format: cell-based, bovine (Angus cross steers); conditions: 30 min; for Effect on NEFA release (in words): i.m. adipose tissue; for NEFA: i.m., mean ± SEM, baseline 0.65 ± 0.20
[3] = biological target: T1, bovine β 1-AR (Bos taurus, UniProt Q9TT96); assay: cAMP induction in CHO cells transfected with bovine β 1-AR construct (LANCE cAMP kit); format: cell-based; conditions: 45 min, 5 mM theophylline, ND = cAMP not detected or insufficient for EC50
T1 construct: expressed in transfected cells; host or cells: Chinese hamster ovary (CHO) cells, pcDNA3.1+ vector
Description: (§3) Chinese Hamster Overy cells were transfected with either the bovine β 1-, β 2-, or β 3-AR constructs in pcDNA3.1+. Expression of the β-AR was confirmed by polymerase chain reaction (PCR). Thereafter, cells were grown in DMEM/Ham’s F12 media with 10% FBS and 1% penicillin/streptomycin at 37 °C under 5% CO2. Opti-plates (Perkin Elmer, Waltham, MA) were used for all experiments. For each experiment, cells were plated into 96-well tissue culture plates at 60,000 cells per well in a volume of 100 µL media. Cells were grown for 48 hr after plating prior to ligand addition and determination of cAMP.
(§4) All samples and standards were tested in duplicate for each repetition, and 4 repetitions per cell line were performed for each potential ligand tested. Controls included no treatment (media alone), 5 mM theophylline alone (an inhibitor of phosphodiesterase), 0.1 % DMSO alone, and water alone. None of the controls differed from media alone and are thus not reported. A volume of media equal to the volume of test material to be added was removed from the well just prior to stimulation. Theophylline was added in a volume of 25 µL to obtain a final concentration of 5 mM and each test molecule was delivered in 10 µL. Cells were returned to 37 °C and allowed to incubate for 45 min before media was removed and the cells lysed in 38 µL lysis buffer A. The LANCE cAMP detection kit (AD0262E) was purchased from Perkin Elmer. The LANCE assay instructions were followed for a 40 µL reaction volume with 15 µL of cell lysate. The reaction was incubated for 20 hr prior to measuring fluorescence. A standard curve was generated with increasing concentrations of cAMP, and the linear portion of the curve was used to calculate sample cAMP concentrations.

[4] = system: bovine i.m. adipose tissue; assay: Lipolysis: glycerol release, i.m. adipose tissue explants; format: cell-based, bovine (Angus cross steers); conditions: 30 min; for Effect on glycerol release (in words): i.m. adipose tissue; for Glycerol: i.m., mean ± SEM, baseline 48.6 ± 10.3
[5] = system: bovine s.c. adipose tissue; assay: cAMP in s.c. adipose tissue explants (Cyclic AMP XP Assay Kit); format: cell-based, bovine (Angus cross steers); conditions: for Effect on cAMP (in words): s.c. adipose tissue, ligand alone; for Effect on cAMP (in words) / cAMP: 30 min; for cAMP: n = 6 steers, baseline 0.42 ± 0.06
Description: as §1, §2

[6] = system: bovine s.c. adipose tissue; assay: Lipolysis: NEFA release, s.c. adipose tissue explants; format: cell-based, bovine (Angus cross steers); conditions: 30 min; for Effect on NEFA release (in words): s.c. adipose tissue; for NEFA: s.c., mean ± SEM, baseline 0.99 ± 0.40
[7] = system: bovine s.c. adipose tissue; assay: Lipolysis: glycerol release, s.c. adipose tissue explants; format: cell-based, bovine (Angus cross steers); conditions: 30 min; for Glycerol: s.c., mean ± SEM, baseline 50.0 ± 12.8
[8] = biological target: T2, bovine β 3-AR (Bos taurus, UniProt P46626); assay: cAMP induction in CHO cells transfected with bovine β 3-AR construct (LANCE cAMP kit); format: cell-based; conditions: 45 min, 5 mM theophylline
T2 construct: expressed in transfected cells; host or cells: Chinese hamster ovary (CHO) cells, pcDNA3.1+ vector
Description: as §3, §4

[9] = biological target: T3, bovine β 2-AR (Bos taurus, UniProt Q28044); assay: cAMP induction in CHO cells transfected with bovine β 2-AR construct (LANCE cAMP kit); format: cell-based; conditions: 45 min, 5 mM theophylline, ND = cAMP not detected or insufficient for EC50
T3 construct: expressed in transfected cells; host or cells: Chinese hamster ovary (CHO) cells, pcDNA3.1+ vector
Description: All samples and standards were tested in duplicate for each repetition, and 4 repetitions per cell line were performed for each potential ligand tested. Controls included no treatment (media alone), 5 mM theophylline alone (an inhibitor of phosphodiesterase), 0.1 % DMSO alone, and water alone. […] A volume of media equal to the volume of test material to be added was removed from the well just prior to stimulation. Theophylline was added in a volume of 25 µL to obtain a final concentration of 5 mM and each test molecule was delivered in 10 µL. […] The reaction was incubated for 20 hr prior to measuring fluorescence. […]

[10] = system: bovine i.m. adipose tissue; assay: cAMP in i.m. adipose tissue explants (Cyclic AMP XP Assay Kit); format: cell-based, bovine (Angus cross steers)
[11] = s.c., pretreatment 1 µM LUB alone or with 10 µM L-748,337, P < 0.05

T2 sequence (P46626 whole entry): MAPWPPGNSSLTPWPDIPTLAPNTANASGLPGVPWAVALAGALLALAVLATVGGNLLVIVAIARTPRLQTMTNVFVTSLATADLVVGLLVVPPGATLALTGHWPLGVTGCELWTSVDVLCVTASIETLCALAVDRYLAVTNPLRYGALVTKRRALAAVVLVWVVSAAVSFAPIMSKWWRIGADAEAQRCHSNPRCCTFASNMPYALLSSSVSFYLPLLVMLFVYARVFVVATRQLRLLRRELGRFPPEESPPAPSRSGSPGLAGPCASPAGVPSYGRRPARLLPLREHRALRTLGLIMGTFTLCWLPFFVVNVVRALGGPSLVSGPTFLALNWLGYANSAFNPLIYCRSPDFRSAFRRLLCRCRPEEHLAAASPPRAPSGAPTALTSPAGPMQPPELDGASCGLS
T3 sequence (Q28044 whole entry): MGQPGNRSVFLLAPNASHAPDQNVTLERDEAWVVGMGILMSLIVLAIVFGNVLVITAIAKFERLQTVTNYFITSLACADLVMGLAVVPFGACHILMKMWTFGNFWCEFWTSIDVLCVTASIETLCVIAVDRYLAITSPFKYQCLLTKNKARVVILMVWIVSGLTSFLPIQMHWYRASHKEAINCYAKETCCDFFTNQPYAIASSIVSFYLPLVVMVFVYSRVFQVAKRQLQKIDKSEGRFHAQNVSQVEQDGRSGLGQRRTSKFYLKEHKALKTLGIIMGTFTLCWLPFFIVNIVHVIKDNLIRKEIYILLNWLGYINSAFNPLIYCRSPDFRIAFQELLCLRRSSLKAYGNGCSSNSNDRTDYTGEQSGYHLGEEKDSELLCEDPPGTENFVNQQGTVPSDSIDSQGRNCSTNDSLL
T1 sequence (Q9TT96 whole entry): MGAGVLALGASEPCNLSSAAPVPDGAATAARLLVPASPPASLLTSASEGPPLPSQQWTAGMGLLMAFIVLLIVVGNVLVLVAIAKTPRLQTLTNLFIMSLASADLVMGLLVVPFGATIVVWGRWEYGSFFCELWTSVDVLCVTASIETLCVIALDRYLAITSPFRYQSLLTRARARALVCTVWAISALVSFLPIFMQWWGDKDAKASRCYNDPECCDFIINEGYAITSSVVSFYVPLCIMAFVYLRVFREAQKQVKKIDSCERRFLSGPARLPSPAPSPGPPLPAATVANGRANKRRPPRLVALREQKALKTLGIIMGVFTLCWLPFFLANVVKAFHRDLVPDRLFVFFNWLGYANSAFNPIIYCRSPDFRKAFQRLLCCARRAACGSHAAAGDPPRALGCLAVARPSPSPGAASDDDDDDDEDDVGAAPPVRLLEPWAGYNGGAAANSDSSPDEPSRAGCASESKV

CC(C)N[C@@H]1CCn2c(=O)[nH]c3cccc(c32)[C@H]1O (racemic) [ZIL, zilpaterol hydrochloride]
Effect on cAMP (in words) ([1]; i.m. adipose tissue, ligand alone, 30 min): Neither RAC nor ZIL (10^–8 to 10^–6 M) affected cAMP concentrations | cAMP ([1]; i.m., 10^–6 M ligand, 30 min, mean ± SEM): 0.78 ± 0.39 pmol/100 mg tissue | cAMP ([1]; i.m., 10^–7 M ligand, 30 min, mean ± SEM): 0.51 ± 0.13 pmol/100 mg tissue | cAMP ([1]; i.m., 10^–8 M ligand, 30 min, mean ± SEM): 0.79 ± 0.30 pmol/100 mg tissue | Effect on NEFA release (in words) [2]: Neither RAC nor ZIL affected cAMP production or glycerol or NEFA release | NEFA ([2]; 10^–6 M ligand): 0.50 ± 0.16 µmol/100 mg tissue | NEFA ([2]; 10^–7 M ligand): 0.91 ± 0.30 µmol/100 mg tissue | NEFA ([2]; 10^–8 M ligand): 0.78 ± 0.28 µmol/100 mg tissue | Induction of cAMP (EC50), β 1-Construct [3]: no detectible cAMP response | Effect on glycerol release (in words) [4]: Neither RAC nor ZIL affected cAMP production or glycerol or NEFA release | Glycerol ([4]; 10^–6 M ligand): 46.0 ± 14.5 nmol/100 mg tissue | Glycerol ([4]; 10^–7 M ligand): 48.6 ± 13.7 nmol/100 mg tissue | Glycerol ([4]; 10^–8 M ligand): 67.4 ± 21.6 nmol/100 mg tissue | Effect on cAMP (in words) [5]: Neither RAC nor ZIL (10^–8 to 10^–6 M) affected cAMP concentrations | cAMP ([5]; s.c., 10^–6 M ligand, mean ± SEM): 0.62 ± 0.27 pmol/100 mg tissue | cAMP ([5]; s.c., 10^–7 M ligand, mean ± SEM): 0.61 ± 0.27 pmol/100 mg tissue | cAMP ([5]; s.c., 10^–8 M ligand, mean ± SEM): 0.76 ± 0.37 pmol/100 mg tissue | Effect on NEFA release (in words) [6]: Neither RAC nor ZIL affected cAMP production or glycerol or NEFA release | NEFA ([6]; 10^–6 M ligand): 1.17 ± 0.35 µmol/100 mg tissue | NEFA ([6]; 10^–7 M ligand): 1.25 ± 0.31 µmol/100 mg tissue | NEFA ([6]; 10^–8 M ligand): 1.06 ± 0.30 µmol/100 mg tissue | Glycerol ([7]; 10^–6 M ligand): 65.9 ± 12.6 nmol/100 mg tissue | Glycerol ([7]; 10^–7 M ligand): 59.3 ± 15.4 nmol/100 mg tissue | Glycerol ([7]; 10^–8 M ligand): 54.8 ± 8.0 nmol/100 mg tissue | EC50 [8]: 9100 nM

CC(C)(Cc1ccc(Oc2ncccc2C#N)cc1)NC[C@H](O)COc1ccccc1-c1cccs1.CC(C)(Cc1ccc(Oc2ncccc2C#N)cc1)NC[C@H](O)COc1ccccc1-c1cccs1.O=C(O)/C=C/C(=O)O [LUB, lubabegron fumarate]
Effect of LUB pretreatment on cAMP with DOB or SAL ([1]; i.m. adipose explants, 1 µM LUB): without effect | Adipose tissue lipolytic sensitivity (−logEC50) to β-AR ligands, i.m. ([1]; i.m., cAMP readout, mean ± SEM, n = 12 cattle, combinations: preincubation with 1 µM LUB ± 10 µM L-748,337, N.A. = not possible to calculate EC50): not demonstrable | Induction of cAMP (EC50), β 2-Construct [9]: no detectible agonistic activity | Effect on NEFA release (in words) [2]: did not affect; also recorded: not influenced | EC50 [3]: 190 nM | Effect on glycerol release (in words) [4]: did not affect | Effect of LUB on cAMP production in tissue pretreated with antagonist ([10]; 30 min preincubation with 10 µM L-748,337, then LUB): depressed cAMP production | Effect of LUB on cAMP production in tissue pretreated with antagonist ([10]; 30 min preincubation with 50 µM PRO, then LUB): no effect | Effect on cAMP (in words) [5]: Neither BRL-37344 nor LUB influenced cAMP or NEFA concentrations | Effect of LUB on cAMP production in tissue pretreated with antagonist ([5]; s.c., 30 min preincubation with 10 µM L-748,337, then LUB 10^–9 to 10^–4 M): reduced by LUB in a dose–response manner | Effect of LUB on cAMP production in tissue pretreated with antagonist ([5]; s.c., 30 min preincubation with 50 µM PRO, then LUB 10^–9 to 10^–4 M): reduced by LUB in a dose–response manner | Adipose tissue lipolytic sensitivity (−logEC50) to β-AR ligands, s.c. ([5]; s.c., cAMP readout, mean ± SEM, n = 12 cattle, combinations: preincubation with 1 µM LUB ± 10 µM L-748,337): 7.40 ± 1.78^2 | Effect on the EC50 of the SAL cAMP response ([5]; s.c., pretreatment 1 µM LUB alone or with 10 µM L-748,337, P < 0.0001): significantly increased | Effect on the maximal cAMP response to DOB [5, 11]: significantly diminished the maximal cAMP response | Effect on the maximal cAMP response to SAL [5, 11]: attenuated the maximal cAMP response | Effect on the EC50 of the cAMP response to DOB ([5]; s.c., pretreatment 1 µM LUB alone or with 10 µM L-748,337, P > 0.05): not a significant change | Effect on NEFA release (in words) [6]: did not affect; also recorded: Neither BRL-37344 nor LUB influenced cAMP or NEFA concentrations | Effect on glycerol release (in words) ([7]; s.c. adipose tissue): did not affect | EC50 [8]: 6 nM
